Data on 6 compounds can be found in patent publication EP1743628A1, “Cosmetic composition containing red algae extract comprising a combination of floridoside and isethionic acid” (Simer, priority 2005, dated 2007).

The structures appear in SMILES notation.

In assay [1] the test system is stratum corneum (SC) délipidisé. Description: Water retention (water-holding capacity, WHC) of delipidised stratum corneum after immersion in aqueous test solutions. More on the design: species or system porc. The following applies: 8 h immersion, après 6 heures à 25°C et 40% RH. The procedure:
On étudie l'hydratation du stratum corneum (SC) délipidisé et traité par différentes solutions aqueuses.
Le but de cette étude est de montrer si l'application cutanée d'une solution aqueuse d'extrait de mastocarpus (10% de matière sèche), de floridoside pur à 3,8%, d'acide iséthionique pur à 1,9%, d'un mélange de floridoside pur à 3,8% et d'acide iséthionique pur à 1,9%, modifie significativement l'état d'hydratation du SC délipidisé puis conservé dans une enceinte à 25°C et à 40 % d'humidité relative (RH).
Dans cette étude, des échantillons de SC, isolés de l'épiderme de morceaux d'oreilles de porc par un traitement à la trypsine (1% dans un tampon phosphate; pH=7,4) puis délipidisés par un solvant (acétone par exemple), ont été immergés pendant 8 heures dans une solution aqueuse d'extrait de mastocarpus 10%, de floridoside pur à 3,8%, d'acide iséthionique pur à 1,9%, d'un mélange de floridoside pur à 3,8% et d'acide iséthionique pur à 1,9%, (3 échantillons de SC par produits). Trois échantillons de SC délipidisé ont été traités par de l'eau ultra pure (contrôle, 18 MΩ), pendant 8 heures. Après traitement, ces échantillons ont été pesés puis placés dans une étuve maintenue à 25°C et à 40% RH. La masse des échantillons de SC traités par chacune des solutions a été déterminée après 1h; 2h; 3h; 4h; 5h et 6h de conservation à 25°C et à 40% RH. […]

For assay [2], the system named is transglutaminase kératinocytaire (TGk). Description: Keratinocyte transglutaminase (TGk) activity in NHEK cultures (differentiation).
Assay [3] concerns fibres musculaires en coculture avec des explants de moelle épinière. The assay is classed as cell-based, cellules musculaires humaines; embryons de rat Wistar.
Where [4] appears, read: acide rétinoïque, concentration not printed in this table (10^-7M per Tableau 4).

With `O=S(=O)(O)CCO` [acide iséthionique], the “état de déshydratation des échantillons de SC” value in assay [1] (acide iséthionique 1,9%, vs contrôle) is on record as “moins déshydratés que les échantillons contrôles”.
Regarding `CC1=C(/C=C/C(C)=C/C=C/C(C)=C/C(=O)O)C(C)(C)CCC1` [Acide rétinoïque], in assay [2] (10^-7M), the “% témoin (activité TGk)” value is reported as 52%, the “Activité TGk (cpm)” value is given as 447 cpm and the “réduction de l'activité TGk” value turned out to be 46%. For the same compound, in assay [2] (setting [4]), the “% (activité TGk/µg de protéines, par rapport au témoin)” value is reported as 67% and the “activité/µg (activité TGk par rapport à la quantité de protéines)” value (from here on “activité/µg”) worked out at 131.
In the case of `[Ca+2].[Cl-].[Cl-]` [Chlorure de calcium], in assay [2] (1,5 mM), the “% (activité TGk/µg de protéines, par rapport au témoin)” value worked out at 317%; the “% témoin (activité TGk)” value is given as 394%; the “activité/µg” value is 626. Further, in assay [2] (1,5mM, sans calcium dans le milieu), the “Activité TGk (cpm)” value is 3408 cpm. Besides, the “activité transglutaminase plus forte en milieu calcium qu'en milieu sans calcium” value in assay [2] (chlorure de calcium 1,5 mM) was around 4 fois.
Turning to `CC1=C(/C=C/C(C)=C/C=C/C(C)=C/CO)C(C)(C)CCC1` [Rétinol], in assay [2] (10^-6 M), the “% (activité TGk/µg de protéines, par rapport au témoin)” value is reported as 72%; the “% témoin (activité TGk)” value stood at 54%; the “Activité TGk (cpm)” value amounted to 465 cpm; the “activité/µg” value was found to be 142. Also, the “réduction de l'activité TGk” value in assay [2] (10^-6 M) came to 48%.
`CCCC(C)(COC(N)=O)COC(=O)NC(C)C` (centres unmarked) [carisoprodol]: the “fréquence de contraction des 3 fibres musculaires sélectionnées” value in assay [3] (10^-3 M (0,03%), après 1 minute et 2 heures d'incubation) is listed as “a bloqué”. For the same compound, in assay [3] (10^-3 M, 48 heures d'incubation, apport de glucose), the “activité contractile après recharge en glucose” value is listed as “n'a pas permis aux fibres musculaires de reprendre une activité contractile”. For the same compound, in assay [3] (carisoprodol 10^-3 M, après changement de milieu et 2 heures sans produit, relative to initial frequency), the “pourcentage moyen de contraction des trois fibres (récupération)” value was found to be 111%.
For `OCC(CO)O[C@H]1O[C@H](CO)[C@H](O)[C@H](O)[C@H]1O` [floridoside, 2-O-glycérol-α-D-galactopyranoside], the “état de déshydratation des échantillons de SC” value in assay [1] (floridoside 3,8%, vs eau) is “n'était pas significativement différent”.
